The values that follow come from patent US20250161216A1, “CATIONIC LIPID ANALOGUES, COMPOSITIONS AND USES THEREOF” (GUANGZHOU LIDE BIOMEDICINE TECHNOLOGY CO., LTD., priority 2022, published 2025).

The test system of data set [1] is C57BL/6 mice. Put plainly: In vivo expression level of Luciferase-mRNA delivered by intravenous injection (bioluminescence imaging). As to conditions: mRNA-loaded nanoparticles, intravenous (tail vein), 5 μg Luciferase-mRNA, 6 hours. An outline of the steps: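 Lipid nanoparticles carrying 5 μg Luciferase-mRNA given by tail-vein injection to 6-8-week-old C57BL/6 mice. At 6 h, 3 mg D-luciferin i.p. in PBS; bioluminescence imaged 10 min later as the expression read-out.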

Data set [2] concerns C57BL/6 mice. The experiment in a line: In vivo expression level of Luciferase-mRNA delivered by intraperitoneal injection (bioluminescence imaging). Conditions: mRNA-loaded nanoparticles, 5 μg Luciferase-mRNA, 6 hours. As for the experimental part:
(§1) Luciferase-mRNA was used as an mRNA model; and the cationic lipid analogue A1I4R22C18-2 of Example 2 was used to prepare drug-loaded nanoparticles according to the method of Example 6.
200 μL of nanoparticles containing 5 μg Luciferase-mRNA or the drug-loaded nanoparticles prepared above were intraperitoneally injected into 6-8 week-old C57BL/6 mice, and 200 μL of 1×PBS solution containing 3 mg D-Luciferin potassium salt was intraperitoneally injected into the mice 6 hours later. After waiting for 10 minutes, an in vivo mRNA expression level of the m-RNA was evaluated by bioluminescence imaging.

Data set [3] relates to C57BL/6 mice. Put plainly: In vivo expression level of Luciferase-mRNA delivered by tracheal injection (bioluminescence imaging). Conditions: mRNA-loaded nanoparticles, 5 μg Luciferase-mRNA, 6 hours. As for the experimental part:
as §1
100 μL of nanoparticles containing 5 μg Luciferase-mRNA or the drug-loaded nanoparticles prepared above were tracheally injected into 6-8 week-old C57BL/6 mice, and 200 μL of 1×PBS solution containing 3 mg D-Luciferin potassium salt was intraperitoneally injected into the mice 6 hours later. After waiting for 10 min, an in vivo mRNA expression level was evaluated by bioluminescence imaging.

A short description of data set [4]: Characterization of the lipid nanoparticles prepared in Example 6. The data set is classed as physicochemical. As to conditions: cationic lipid analogue:cholesterol:DSPC:DMG-PEG 50:38.5:10:1.5. From the text:
The drug-loaded nanoparticle included a cationic lipid analogue, cholesterol, distearoylphosphatidylcholine (DSPC), and 1,2-dimyristoyl-rac-glycerol-3-methoxypolyethylene glycol (DMG-PEG), • wherein a molar ratio of the cationic lipid analogue:cholesterol:DSPC:DMG-PEG was 50:38.5:10:1.5.
In the drug-loaded nanoparticle, a mass ratio of the cationic lipid analogue to the nucleic acid drug, such as mRNA or siRNA, etc., was 11:1.
A cationic lipid analogue, cholesterol, DSPC, and DMG-PEG were dissolved in an ethanol solution, and mixed in the above-mentioned molar ratio to obtain an organic phase. Then, an mRNA nucleic acid drug at a corresponding mass ratio was dissolved in a sodium acetate buffer solution (25 mM, pH=3.0) to obtain an aqueous phase, so that a volume ratio of the aqueous phase to the organic phase was 3:1. Then, the aqueous phase was quickly added to the organic phase and mixed evenly, and the mixture was allowed to stand for 10 minutes. After that, the mixture was put into a 1000 Da dialysis bag, and dialyzed in a 1×PBS solution at 4° C. for 2 hours to obtain the nanoparticle that can be directly used for injection.

Data set [5] concerns C57BL/6 mice. The experiment in a line: In vivo expression level of Luciferase-mRNA delivered by intramuscular injection (bioluminescence imaging). Conditions: mRNA-loaded nanoparticles, intramuscular (leg muscle), 5 μg Luciferase-mRNA, 6 hours. Put shortly:
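LNPs prepared with cationic lipid analogues carrying 5 μg Luciferase-mRNA injected into leg muscle of 6-8 week-old C57BL/6 mice. D-Luciferin (3 mg, i.p.) given 6 h post-dose; bioluminescence imaged 10 min later as in vivo mRNA expression level.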

Turning to `CCCCC/C=C\C/C=C\CCCCCCCC(=O)N(CCO)C(C(=O)NCCN(C)CCNC(=O)C(C(C)C)N(CCO)C(=O)CCCCCCC/C=C\C/C=C\CCCCC)C(C)C` (centres unmarked) [A1I4R22C18-2], the “Fluorescence intensity of spleen” value with C57BL/6 mice [1] (compounds of Example 2) stood at 1.47E+06. In addition, in the data set with C57BL/6 mice [2], the “Fluorescence intensity of spleen” value is recorded as 6.48E+06. Besides, the “Fluorescence intensity of spleen” value with C57BL/6 mice [3] turned out to be 2.54E+05. In data set [4], the “Diameter of the nanoparticles” value is reported as 133 ± 6 nm, the PDI turned out to be 0.17, the Zeta potential is reported as −5.5 mV and the encapsulation efficiency came out at 62.1%. The same compound returned a Local fluorescence intensity in the data set with C57BL/6 mice [5] (compounds of Example 2) of 2.69E+05.
Turning to `CCCCCCCCCCSSCCC(=O)N(CCO)C(C(=O)NCCN(CCNC(=O)C(C(C)C)N(CCO)C(=O)CCSSCCCCCCCCCC)CCNC(=O)C(C(C)C)N(CCO)C(=O)CCSSCCCCCCCCCC)C(C)C` (centres unmarked) [A1I5R22S15], the “Fluorescence intensity of spleen” value in the data set with C57BL/6 mice [1] (compounds of Example 3) is given as 3.40E+06. Also, in data set [4], the “Diameter of the nanoparticles” value turned out to be 144 ± 7 nm, the PDI came out at 0.22, the Zeta potential is −7.2 mV and the encapsulation efficiency is 65.4%. This compound also gave a Local fluorescence intensity in the data set on C57BL/6 mice [5] (compounds of Example 3) of 1.50E+06.
For the compound `CCCCC/C=C\C/C=C\CCCCCCCC(=O)N(CCN(CCN(C(=O)CCCCCCC/C=C\C/C=C\CCCCC)C(C(=O)NCC(=O)OCC)C(C)C)CCN(C(=O)CCCCCCC/C=C\C/C=C\CCCCC)C(C(=O)NCC(=O)OCC)C(C)C)C(C(=O)NCC(=O)OCC)C(C)C` (centres unmarked) [A1I32R47C18-2], in the data set on C57BL/6 mice [1] (compounds of Example 5), the “Fluorescence intensity of spleen” value was 8.50E+03. For the same compound, in data set [4], the “Diameter of the nanoparticles” value came out at 150 ± 9 nm, the PDI came to 0.21, the Zeta potential is −3.1 mV and the encapsulation efficiency is given as 60.5%. In the data set with C57BL/6 mice [5] (compounds of Example 5), this compound displayed a Local fluorescence intensity of 3.68E+04.
As for `CCCCC/C=C\C/C=C\CCCCCCCC(=O)N(CCCN(CC)CC)C(C(=O)NCCCCCCCCCCCCCCCCCC)C(CC)CCCC` (centres unmarked) [A4I18R3C18-2], in the data set on C57BL/6 mice [1] (compounds of Example 1), the Bioluminescence intensity is 2.29E+07. Further, in data set [4], the “Diameter of the nanoparticles” value is 83 ± 9 nm, the PDI turned out to be 0.12, the Zeta potential was −3.2 mV and the encapsulation efficiency came out at 75.3%. The Local fluorescence intensity in the data set on C57BL/6 mice [5] (compounds of Example 1) worked out at 3.08E+07.
With `CCCCCCCCCCCCCCCCCCNC(=O)C(C1CCCCC1)N(CCCN(C)C)C(=O)CCCCCCCCCCCCCCCCC` (centres unmarked) [A23I18R2C18], the “Fluorescence intensity of liver” value in the data set on C57BL/6 mice [1] (compounds of Example 1) turned out to be 3.87E+05. The Local fluorescence intensity in the data set with C57BL/6 mice [5] (compounds of Example 1) came out at 4.83E+04.
On to `CCCCCCCCCCCCCCCCCCNC(=O)C(C1CCCCC1)N(CCCN1CCOCC1)C(=O)CCCCCCCCCCCCCCCCC` (centres unmarked) [A23I18R5C18], for which, in the data set with C57BL/6 mice [1] (compounds of Example 1), the “Fluorescence intensity of liver” value was 1.85E+03. Also, the Local fluorescence intensity in the data set with C57BL/6 mice [5] (compounds of Example 1) amounted to 9.13E+04.
The like results for `CCCCC/C=C\C/C=C\CCCCCCCC(=O)N(CCN1CCCCC1)C(C(=O)NCCCCCCCCCCCCCCCCCC)C1CCCCC1` (centres unmarked) [A23I18R12C18-2] were, in that order, 6.30E+03 and 2.01E+06.
